Measurements: US20050130237A1, “High throughput screening method for compounds with non-, pro-, or anti-apoptotic or proliferative or necrotic activity” (priority 2002, published 2005)
Peptide text beside a SMILES is read from it. * marks the point of attachment. Cbz = O=C(OCc1ccccc1)*; CH2F = FC*

What was measured:
Assay type in all cases: cell-based, human
[1] = system: HeLa cells; assay: Secondary screening: FACS analysis discriminating apoptotic and necrotic activity of anti-cancer drugs; settings: for necrotic activity (FACS histograms): necrosis evident after exposure longer than 24 h, followed up to 48 h, Navelbine, Velbe, Campto 1/1000 diluted, Adriblastin 1/2000 diluted
Text: For this purpose HeLa cells have been treated with typical anti-cancer drugs of different mode of actions. Navelbine and Velbe, two typical representatives of microtubules interfering drugs and Adriblastin and Campto, topo-isomerase inhibitors, which interfere with DNA synthesis.
Arrows indicate regions with either necrotic cells (left arrow) or apoptotic cells (middle arrow) or proliferating/living cells (right arrow). […] This fact became evident after exposure of the cells for longer than 24 h.
HeLa cells have been treated with typical anti-cancer drugs of different mode of actions. Navelbine and Velbe, two typical representatives of microtubules interfering drugs and Adriblastin and Campto, topo-isomerase inhibitor, which interfere with DNA synthesis. Histograms of FACS analysis of cells treated either with Navelbine (1/1000 diluted), Velbe (1/1000 diluted), Adriblastin (1/2000 diluted) and Campto (1/1000 diluted) are shown in FIG. 4. Arrows indicate regions with either necrotic cells (left arrow), apoptotic cells (middle arrow) and proliferating cells (right arrow). […] This fact became evident after exposure of the cells for longer than 24 h.

[2] = system: HeLa cells; assay: Primary screening: overall EGFP relative fluorescence activity per well, fluorescence microplate reader, 96-well plates; settings: values under 0.8 = pro-apoptotic and/or necrotic
Text: A representative primary screening with standard experimental set-up, where 16 commercially available anti-cancer drugs have been tested on five different EGFP expressing cell lines (HeLa, KB, A20, Ramos and Jurkat) in 96-well microtiter plates is shown in FIG. 2. Differential susceptibility regarding induction of apoptosis and/or necrosis after treatement with 5-Fluorouracil (5-FU), Gemzar, Methotrexate, Eloxantin, Detimedac, Endoxan, Paraplatin, Navelbine, Velbe, Taxotere, Taxol, Adriblastin, Bleomycin, Campto, Etopophos and Farmorubicin is shown. Measurements after 24 h and 48 h were performed with a fluorescence microplate reader, which measures the overall fluorescence activity in a single well. Used compound concentrations are indicated by a fraction of the original concentration.
The setting of a cut-off value, corresponding to 0.8 in this case, allows the clear discrimination between two main groups of different activities. […] According to these intermediate values between 0 and 0.8 measured by a fluorescence microplate reader, it can hardly be discriminated between the subpopulations of apoptotic and necrotic cells within the same well. […]
Immediately after the addition of the compounds to the cells the zero fluorescence value (t=0 h) was determined by using a fluorescence microplate reader in order to be able to normalize the fluorescence activities. […]

[3] = system: JurkatGFP cells; assay: Anti-apoptotic activity after induction of apoptosis by serially diluted soluble FasL, fluorescence microplate reader; settings: 24 h incubation, compared with control peptide zFA
Text: The activity of an anti-apoptotic compound, e.g. the pan caspase inhibitor zVADfmk, has been tested on JurkatGFP cells after induction of apoptosis by serially diluted soluble FasL and measured by a fluorescence microplate reader. […] The bars indicate standard deviations, which have been determined by measuring 6 single values for each datapoint.

Compound | necrotic activity (FACS histograms) [1] | further results
COc1cccc2c1C(=O)c1c(O)c3c(c(O)c1C2=O)C[C@@](O)(C(=O)CO)C[C@@H]3O[C@H]1C[C@H](N)[C@H](O)[C@H](C)O1 [Adriblastin] | do not show any tendency for necrotic activity | apoptotic activity (FACS histograms) ([1]; single-cell flow cytometry): only induce apoptosis; relative fluorescence activity (intermediate value, cut-off 0.8) ([2]; highest concentration 1/5 k of original concentration): 0.53
CCc1c2c(nc3ccc(OC(=O)N4CCC(N5CCCCC5)CC4)cc13)-c1cc3c(c(=O)n1C2)COC(=O)[C@]3(O)CC [Campto] | do not show any tendency for necrotic activity | 
CCC1=C[C@@H]2CN(C1)Cc1c([nH]c3ccccc13)[C@@](C(=O)OC)(c1cc3c(cc1OC)N(C)[C@H]1[C@@](O)(C(=O)OC)[C@H](OC(C)=O)[C@]4(CC)C=CCN5CC[C@]31[C@@H]54)C2 [Navelbine] | strong tendency to induce necrosis | relative fluorescence activity (intermediate value, cut-off 0.8) ([2]; highest concentration 1/10 k of original concentration): 0.49
CC[C@]1(O)C[C@@H]2CN(CCc3c([nH]c4ccccc34)[C@@](C(=O)OC)(c3cc4c(cc3OC)N(C)[C@H]3[C@@](O)(C(=O)OC)[C@H](OC(C)=O)[C@]5(CC)C=CCN6CC[C@]43[C@@H]65)C2)C1 [Velbe] | strong tendency to induce necrosis | 
COC(=O)C[C@H](NC(=O)[C@H](C)NC(=O)[C@@H](NC(=O)OCc1ccccc1)C(C)C)C(=O)CF [zVAD] (Cbz-Val-Ala-Asp(OMe)-CH2F) |  | anti-apoptotic effect on the apoptotic activity of FasL [3]: clear inhibitory anti-apoptotic effect
